From patent publication US4204879A, “Amino acid salts of anionic dyestuffs which have high solubility in organic solvents” (Williams (Hounslow) Limited, priority 1976, dated 1980) come the findings set out here.

A short description of the data set: Maximum concentration of dye giving a solution stable for 24 hours at room temperature (Tables 2 and 3). Format: physicochemical. The procedure: The solubility values given in these Tables are the maximum concentration of dye in grams/liter giving a solution stable for 24 hours at room temperature.
Where [1] appears, read: Table 2, 24 hours, room temperature, salts of 1:2 chromium complex of 2-amino-4-nitrophenol→3-methyl-1-phenyl-5-pyrazolone.

With 2-ethylhexylamine, the “Solubility in Acetone” value (acetone, 24 h) is recorded as greater than 100 g.1^-1. Further, under “24 h”, the “Solubility in Ethanol” value was found to be 30 g.1^-1. Besides, the “Solubility in Ethyl Acetate” value (ethyl acetate, 24 h) is reported as less than 5 g.1^-1.
In the same order, the values of N-phenylglycine are greater than 100 g.1^-1, 50 g.1^-1 and 100 g.1^-1.
As for aniline, under setting [1], the “Solubility in Acetone” value is 25 g.1^-1 and the “Solubility in Ethyl Acetate” value is less than 5 g.1^-1.
As to iso-tridecylamine, the “Solubility in Acetone” value (acetone, 24 h) is given as greater than 500 g.1^-1. Also, the “Solubility in Ethanol” value (24 h) is 200 g.1^-1. For the same substance, the “Solubility in Ethyl Acetate” value (ethyl acetate, 24 h) is on record as less than 50 g.1^-1.
